Assay results reported in ChEMBL document CHEMBL5252578, “seco-Pregnane Glycosides from Australian Caustic Vine (Cynanchum viminale subsp. australe)” (J Nat Prod, 2023).
Calls of active or inactive are those of the source. No cut-off for these calls is given here.

Columns and labels:
[1] = test system: Sarcoptes scabiei; assay: Miticidal activity against Sarcoptes scabiei assessed as mortality rate at 100 uM measured upto 48 hrs by microscopic analysis; assay type: functional
[2] = test system: Sarcoptes scabiei; assay: Miticidal activity against Sarcoptes scabiei Larva assessed as effect on larval mortality at 100 uM measured upto 48 hrs by microscopic analysis; assay type: functional, organism-based
[3] = test system: Sarcoptes scabiei; assay: Miticidal activity against Sarcoptes scabiei eggs assessed as effect on egg hatching at 100 uM measured upto 48 hrs by microscopic analysis; assay type: functional, organism-based
[4] = molecular target: Cholinesterase (Equus caballus) (UniProt P81908); assay: Inhibition of equine BuChE at 100 uM using […] as substrate incubated for 29 mins by Ellman's method relative to control
[5] = test system: NFF; assay: Cytotoxicity against human NFF cells assessed as cell growth inhibition measured after 6 days by SRB assay; assay type: functional, cell-based; details: 144 h
[6] = test system: MCF7; assay: Cytotoxicity against human MCF7 cells assessed as cell growth inhibition measured after 6 days by SRB assay; assay type: functional, cell-based; details: MCF7, 144 h
[7] = test system: MM96L; assay: Cytotoxicity against human MM96L cells assessed as cell growth inhibition measured after 6 days by SRB assay; assay type: functional, cell-based; details: 144 h
[8] = test system: HeLa; assay: Cytotoxicity against human HeLa cells assessed as cell growth inhibition measured after 6 days by SRB assay; assay type: functional, cell-based; details: 144 h
[9] = test system: HT-29; assay: Cytotoxicity against human HT-29 cells assessed as cell growth inhibition measured after 6 days by SRB assay; assay type: functional, cell-based; details: HT-29, 144 h

Chain of Cholinesterase (Equus caballus) (P81908 whole entry): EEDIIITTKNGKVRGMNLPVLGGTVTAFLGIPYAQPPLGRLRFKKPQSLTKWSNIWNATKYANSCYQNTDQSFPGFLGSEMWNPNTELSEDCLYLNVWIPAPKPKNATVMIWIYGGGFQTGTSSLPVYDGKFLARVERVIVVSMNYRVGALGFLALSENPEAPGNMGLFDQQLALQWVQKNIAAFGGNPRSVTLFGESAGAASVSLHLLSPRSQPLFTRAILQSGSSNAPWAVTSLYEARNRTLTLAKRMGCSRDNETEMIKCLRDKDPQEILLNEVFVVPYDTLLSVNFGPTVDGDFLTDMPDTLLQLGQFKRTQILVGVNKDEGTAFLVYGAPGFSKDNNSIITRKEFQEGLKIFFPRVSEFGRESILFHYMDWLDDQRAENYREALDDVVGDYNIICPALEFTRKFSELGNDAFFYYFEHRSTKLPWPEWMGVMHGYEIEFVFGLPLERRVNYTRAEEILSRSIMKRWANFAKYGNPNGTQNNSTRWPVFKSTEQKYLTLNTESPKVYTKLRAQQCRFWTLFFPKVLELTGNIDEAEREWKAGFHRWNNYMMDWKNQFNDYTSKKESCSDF

SMILES | Activity [1] | Activity [2] | Activity [3] | inhibition [4] [%] | IC50 [5] [µM] | IC50 [6] [µM] | IC50 [7] [µM] | IC50 [8] [µM] | IC50 [9] [µM]
CO[C@H]1C[C@H](O[C@H]2CC[C@@]3(C)C(=CCC(=O)[C@@H]3C[C@@H](OC(C)=O)[C@@]3(C)C(=O)CC[C@H]3C(C)=O)C2)O[C@H](C)[C@H]1O[C@H]1C[C@@H](OC)[C@H](O)[C@@H](C)O1 | inactive | inactive | inactive | 2.64 | – | – | – | – | –
C[C@@]1([C@@H](C[C@H]2C(=O)CC=C3C[C@@H](O)CC[C@@]32C)OC(=O)c2ccccc2)C(=O)[C@@]2(C)CC[C@@H]1O2 | – | – | – | 14 | > 10 | > 10 | > 10 | > 10 | > 10
CO[C@H]1C[C@H](O[C@H]2[C@@H](OC)C[C@H](O[C@H]3CC[C@@]4(C)C(=CCC(=O)[C@@H]4C[C@@H](OC(C)=O)[C@@]4(C)C(=O)CC[C@H]4C(C)=O)C3)O[C@@H]2C)O[C@H](C)[C@H]1O | 30% | inactive | inactive | 13.5 | – | – | – | – | –
CC(=O)O[C@H](C[C@H]1C(=O)CC=C2C[C@@H](O)CC[C@@]21C)[C@@]1(C)C(=O)CC[C@H]1C(C)=O | – | – | – | 7.72 | – | – | – | – | –
